Results taken from ChEMBL document CHEMBL1641409, “Synthesis and SAR study of new phenylimidazole-pyrazolo[1,5-c]quinazolines as potent phosphodiesterase 10A inhibitors” (Bioorg Med Chem, 2011).

Experiments:
[1] = target: Dual specificity calcium/calmodulin-dependent 3',5'-cyclic nucleotide phosphodiesterase 1B (Homo sapiens, UniProt Q01064); experiment: Inhibition of PDE1B
[2] = target: cGMP-inhibited 3',5'-cyclic phosphodiesterase 3A (Homo sapiens, UniProt Q14432); experiment: Inhibition of PDE3A
cGMP-inhibited 3',5'-cyclic phosphodiesterase 3A, sequence (Q14432 whole entry): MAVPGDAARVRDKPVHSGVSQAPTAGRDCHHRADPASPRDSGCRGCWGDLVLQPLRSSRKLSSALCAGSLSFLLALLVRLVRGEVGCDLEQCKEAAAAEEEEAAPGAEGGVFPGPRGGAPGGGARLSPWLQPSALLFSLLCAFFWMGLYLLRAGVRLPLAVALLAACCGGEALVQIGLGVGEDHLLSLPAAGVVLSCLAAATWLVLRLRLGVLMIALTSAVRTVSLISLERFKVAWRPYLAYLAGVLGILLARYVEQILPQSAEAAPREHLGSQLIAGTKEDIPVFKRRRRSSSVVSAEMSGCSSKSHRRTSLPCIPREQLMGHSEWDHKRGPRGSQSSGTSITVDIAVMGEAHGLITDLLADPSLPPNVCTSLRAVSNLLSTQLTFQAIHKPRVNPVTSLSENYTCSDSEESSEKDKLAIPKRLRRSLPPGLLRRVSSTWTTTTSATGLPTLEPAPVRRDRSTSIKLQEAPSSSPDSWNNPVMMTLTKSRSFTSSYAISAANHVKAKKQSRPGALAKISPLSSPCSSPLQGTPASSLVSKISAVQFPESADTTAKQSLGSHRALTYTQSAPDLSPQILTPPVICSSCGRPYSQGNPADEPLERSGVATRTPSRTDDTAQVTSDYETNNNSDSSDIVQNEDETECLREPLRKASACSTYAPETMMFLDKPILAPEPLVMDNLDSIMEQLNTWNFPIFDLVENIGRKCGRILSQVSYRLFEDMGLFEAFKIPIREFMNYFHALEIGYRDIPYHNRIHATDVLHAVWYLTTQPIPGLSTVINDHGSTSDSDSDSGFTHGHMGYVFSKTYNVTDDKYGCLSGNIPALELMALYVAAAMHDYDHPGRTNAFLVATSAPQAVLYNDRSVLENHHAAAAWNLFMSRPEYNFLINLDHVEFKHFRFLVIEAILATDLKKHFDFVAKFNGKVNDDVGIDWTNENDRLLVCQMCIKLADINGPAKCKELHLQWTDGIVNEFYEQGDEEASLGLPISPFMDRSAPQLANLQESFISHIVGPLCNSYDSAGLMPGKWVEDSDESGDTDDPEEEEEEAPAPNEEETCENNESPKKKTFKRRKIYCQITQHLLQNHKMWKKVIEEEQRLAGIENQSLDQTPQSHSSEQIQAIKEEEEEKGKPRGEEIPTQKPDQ

[3] = target: 3',5'-cyclic-AMP phosphodiesterase 4D (Homo sapiens, UniProt Q08499); experiment: Inhibition of PDE4D6
3',5'-cyclic-AMP phosphodiesterase 4D, sequence (Q08499 whole entry): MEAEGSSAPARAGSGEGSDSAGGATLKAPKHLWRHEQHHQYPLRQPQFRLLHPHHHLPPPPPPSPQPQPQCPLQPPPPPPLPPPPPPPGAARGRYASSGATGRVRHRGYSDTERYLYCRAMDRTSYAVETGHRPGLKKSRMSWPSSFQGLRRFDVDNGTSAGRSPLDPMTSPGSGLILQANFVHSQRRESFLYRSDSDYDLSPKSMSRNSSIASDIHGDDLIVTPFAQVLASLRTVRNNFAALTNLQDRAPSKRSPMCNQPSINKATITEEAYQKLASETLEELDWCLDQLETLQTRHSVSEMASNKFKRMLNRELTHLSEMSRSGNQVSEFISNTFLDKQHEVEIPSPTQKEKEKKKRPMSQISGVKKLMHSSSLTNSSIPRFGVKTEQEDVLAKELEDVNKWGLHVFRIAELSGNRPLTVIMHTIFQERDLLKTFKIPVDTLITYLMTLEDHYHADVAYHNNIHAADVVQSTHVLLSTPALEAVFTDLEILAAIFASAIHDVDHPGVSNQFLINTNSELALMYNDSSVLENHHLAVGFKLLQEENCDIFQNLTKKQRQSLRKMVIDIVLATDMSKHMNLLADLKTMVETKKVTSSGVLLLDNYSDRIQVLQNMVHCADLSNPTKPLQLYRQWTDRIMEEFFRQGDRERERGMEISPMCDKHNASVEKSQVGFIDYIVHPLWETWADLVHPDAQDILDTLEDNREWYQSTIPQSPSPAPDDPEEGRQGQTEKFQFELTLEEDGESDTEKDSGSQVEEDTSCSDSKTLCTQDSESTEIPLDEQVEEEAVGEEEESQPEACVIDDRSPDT

[4] = target: cGMP-specific 3',5'-cyclic phosphodiesterase (Homo sapiens, UniProt O76074); experiment: Inhibition of PDE5A
[5] = target: 3',5'-cyclic-AMP phosphodiesterase 7B (Homo sapiens, UniProt Q9NP56); experiment: Inhibition of PDE7B
3',5'-cyclic-AMP phosphodiesterase 7B, sequence (Q9NP56 whole entry): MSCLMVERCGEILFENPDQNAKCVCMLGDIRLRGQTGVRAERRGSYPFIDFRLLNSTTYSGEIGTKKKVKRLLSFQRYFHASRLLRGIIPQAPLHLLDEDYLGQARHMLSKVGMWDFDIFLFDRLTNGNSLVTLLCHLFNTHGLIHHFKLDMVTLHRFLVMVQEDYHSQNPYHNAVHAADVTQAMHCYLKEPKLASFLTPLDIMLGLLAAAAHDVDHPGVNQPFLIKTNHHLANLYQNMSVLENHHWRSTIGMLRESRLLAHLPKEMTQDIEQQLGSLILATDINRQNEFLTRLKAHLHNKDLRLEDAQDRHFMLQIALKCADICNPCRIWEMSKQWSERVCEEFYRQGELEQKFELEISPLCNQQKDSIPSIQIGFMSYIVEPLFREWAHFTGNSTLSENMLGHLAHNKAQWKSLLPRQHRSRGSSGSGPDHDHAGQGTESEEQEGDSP

Plasma [6] = experiment: Drug level in mouse plasma at 2 mg/kg, po; format: ADME, organism-based; design: dose 2 mg/kg, route oral; conditions: in vivo
Brain [7] = experiment: Drug level in mouse brain measured per gram of tissue at 2 mg/kg, po; format: ADME, organism-based; design: dose 2 mg/kg, route oral; conditions: in vivo
[8] = Ratio of drug level in brain to plasma in mouse at 2 mg/kg, po; format: ADME, organism-based; design: dose 2 mg/kg, route oral; conditions: read-out: BPR
[9] = target: cAMP and cAMP-inhibited cGMP 3',5'-cyclic phosphodiesterase 10A (Homo sapiens, UniProt Q9Y233); experiment: Inhibition of human PDE10A expressed in Sf9 cells using [3H]cAMP by scintillation proximity assay
cAMP and cAMP-inhibited cGMP 3',5'-cyclic phosphodiesterase 10A, sequence (Q9Y233 whole entry): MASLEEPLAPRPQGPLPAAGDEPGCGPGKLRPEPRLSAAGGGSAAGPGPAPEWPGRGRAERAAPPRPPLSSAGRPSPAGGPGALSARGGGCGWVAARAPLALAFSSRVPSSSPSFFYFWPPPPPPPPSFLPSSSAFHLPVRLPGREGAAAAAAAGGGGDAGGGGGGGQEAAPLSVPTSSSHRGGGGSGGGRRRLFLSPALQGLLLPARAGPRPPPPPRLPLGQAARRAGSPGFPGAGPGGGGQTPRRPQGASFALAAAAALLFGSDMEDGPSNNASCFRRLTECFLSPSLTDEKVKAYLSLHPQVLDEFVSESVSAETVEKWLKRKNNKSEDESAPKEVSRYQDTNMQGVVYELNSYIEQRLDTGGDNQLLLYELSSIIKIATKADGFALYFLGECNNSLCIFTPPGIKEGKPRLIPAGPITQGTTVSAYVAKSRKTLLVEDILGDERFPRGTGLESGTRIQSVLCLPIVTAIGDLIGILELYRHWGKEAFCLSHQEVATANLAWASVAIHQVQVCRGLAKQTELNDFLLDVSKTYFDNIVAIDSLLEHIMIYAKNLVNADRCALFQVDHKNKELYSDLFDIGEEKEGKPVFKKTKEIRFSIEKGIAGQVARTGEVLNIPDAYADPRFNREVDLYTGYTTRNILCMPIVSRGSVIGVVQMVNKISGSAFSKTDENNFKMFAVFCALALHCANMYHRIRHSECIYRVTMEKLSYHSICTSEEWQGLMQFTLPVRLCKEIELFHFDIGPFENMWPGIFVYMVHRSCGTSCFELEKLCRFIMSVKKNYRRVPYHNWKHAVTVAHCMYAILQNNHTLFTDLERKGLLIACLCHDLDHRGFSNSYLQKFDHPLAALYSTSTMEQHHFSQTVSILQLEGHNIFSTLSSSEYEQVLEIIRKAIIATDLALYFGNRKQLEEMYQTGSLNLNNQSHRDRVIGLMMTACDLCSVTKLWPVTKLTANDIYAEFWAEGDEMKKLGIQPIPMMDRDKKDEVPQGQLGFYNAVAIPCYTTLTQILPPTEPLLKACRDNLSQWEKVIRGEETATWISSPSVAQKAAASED

Plasma [10] = experiment: Drug level in mouse plasma at 5 mg/kg, sc; format: ADME, organism-based; design: dose 5 mg/kg, route subcutaneous; conditions: in vivo
Brain [11] = experiment: Drug level in mouse brain measured per gram of tissue at 5 mg/kg, sc; format: ADME, organism-based; design: dose 5 mg/kg, route subcutaneous; conditions: in vivo
[12] = Ratio of drug level in brain to plasma in mouse at 5 mg/kg, sc; format: ADME, organism-based; design: dose 5 mg/kg, route subcutaneous; conditions: read-out: BPR

Dual specificity calcium/calmodulin-dependent 3',5'-cyclic nucleotide phosphodiesterase 1B, sequence (Q01064 whole entry): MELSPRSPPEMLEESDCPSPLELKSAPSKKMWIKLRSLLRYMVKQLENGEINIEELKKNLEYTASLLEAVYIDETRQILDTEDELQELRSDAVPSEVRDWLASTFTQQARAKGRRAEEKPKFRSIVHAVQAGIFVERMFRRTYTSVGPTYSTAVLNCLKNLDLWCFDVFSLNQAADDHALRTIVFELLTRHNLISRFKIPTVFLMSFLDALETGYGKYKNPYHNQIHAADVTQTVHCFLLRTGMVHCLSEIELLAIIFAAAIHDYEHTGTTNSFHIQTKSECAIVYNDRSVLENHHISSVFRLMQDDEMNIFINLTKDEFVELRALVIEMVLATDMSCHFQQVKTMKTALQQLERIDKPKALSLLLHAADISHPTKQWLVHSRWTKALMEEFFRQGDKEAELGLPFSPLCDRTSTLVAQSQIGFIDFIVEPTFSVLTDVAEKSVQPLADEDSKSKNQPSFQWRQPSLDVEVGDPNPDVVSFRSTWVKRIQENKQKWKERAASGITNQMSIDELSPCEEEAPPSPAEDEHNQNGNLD

| SMILES | IC50 [9] | further results |
| --- | --- | --- |
| Cc1nc2c3ccccc3nc(SCc3nc4ccccc4[nH]3)n2n1 | – | IC50 [1]: 10000 nM; IC50 [2]: 10000 nM; IC50 [3]: 10000 nM; IC50 [4]: 10000 nM; IC50 [5]: 10000 nM; Drug uptake (Plasma [6]): 629 ng/mL; Drug uptake (Brain [7]): < 25 ng/mL; Kp [8]: < 0.04 |
| Cc1cc2c3ccc(Cl)cc3nc(CCc3nc(-c4ccccc4)cn3C)n2n1 | 50 nM | – |
| Cc1cc2c3cc(Cl)ccc3nc(CCc3nc(-c4ccccc4)cn3C)n2n1 | 16 nM | – |
| COc1ccc2c(c1)nc(CSc1nc(-c3ccccc3)cn1C)n1nc(C)cc21 | 100 nM | – |
| Cc1cc2c3cccc(Cl)c3nc(CSc3nc(-c4ccccc4)cn3C)n2n1 | 73 nM | – |
| Cc1cc2c3ccc(Cl)cc3nc(CSc3nc(-c4ccccc4)cn3C)n2n1 | 130 nM | – |
| Cc1cc2c3ccccc3nc(CCc3nc(-c4ccccc4)cn3C)n2n1 | 50 nM | Drug uptake (Plasma [10]): 150 ng/mL; Drug uptake (Brain [11]): 98 ng/mL; Kp [12]: 0.65 |
| Cc1cc2c3cccc(C)c3nc(CSc3nc(-c4ccccc4)cn3C)n2n1 | 160 nM | – |
| Cc1cc2c3ccccc3nc(CSc3nc(-c4ccccc4)cn3C)n2n1 | 48 nM | – |
| COc1cccc2c1nc(CCc1nc(-c3ccccc3)cn1C)n1nc(C)cc21 | 37 nM | – |
| COc1ccc2nc(CCc3nc(-c4ccccc4)cn3C)n3nc(C)cc3c2c1 | 430 nM | – |
| COc1cccc2c1nc(CSc1nc(-c3ccccc3)cn1C)n1nc(C)cc21 | 83 nM | – |
| Cc1cc2c3cccc(C)c3nc(CCc3nc(-c4ccccc4)cn3C)n2n1 | 78 nM | – |
| COc1ccc2c(c1)nc(CCc1nc(-c3ccccc3)cn1C)n1nc(C)cc21 | 31 nM | – |
| Cc1cc2c3cc(Cl)ccc3nc(CSc3nc(-c4ccccc4)cn3C)n2n1 | 110 nM | – |
| Cc1cc2c3cccc(Cl)c3nc(CCc3nc(-c4ccccc4)cn3C)n2n1 | 52 nM | – |
| Cc1ccc2nc(CCc3nc(-c4ccccc4)cn3C)n3nc(C)cc3c2c1 | 16 nM | IC50 [1]: 10000 nM; IC50 [2]: 10000 nM; IC50 [3]: 10000 nM; IC50 [4]: 10000 nM; IC50 [5]: 10000 nM |
| Cc1ccc2nc(CSc3nc(-c4ccccc4)cn3C)n3nc(C)cc3c2c1 | 76 nM | – |
